For orientation: pEC50 means the negative decadic logarithm of the EC50, by convention in mol/L. In general, CC50 refers to the concentration giving 50% cytotoxicity. Low values mean greater toxicity to the cells, high ones lower toxicity to the cells.

The test system of series [1] is Influenza strain A549 A/WSN/33 (H1N1). Description: microbe, parasite or virus in culture. It counts as cell-based. The following applies: Influenza A virus, A549, 20 h, A549 cells, influenza A/WSN/33 (H1N1), 20 hours incubation; read-out: A549_A(H1N1) EC50.
The nature of the next series: in vitro. The following applies: human, CC50, uninfected A549 cells, CellTiter-Glo. (In ATP-based viability assays light output follows the ATP content of the culture.)

pEC50: −log10 of the molar value. A value given as a limit tells only on which side of the number the result lay.

With `O=C1c2c(O)c(=O)ccn2N2CN1C/C=C\COc1ccc(F)cc1[C@@H]2c1cccc(F)c1` (single isomer, unassigned) [Compound 25B, (18*S,Z)-2-fluoro-18-(3-fluorophenyl)-12-hydroxy-6,9-dihydro-18H-10,17-methanobenzo[b]pyrido[1,2-f][1]oxa[5,6,9]triazacyclotridecine-11,13-dione], in series [1], the negative-log EC50 (pEC50) was 7.96. Also, the CC50 in “in vitro” is more than 2000 nM.

Take `O=C1c2c(O)c(=O)ccn2N2CN1C/C=C\COc1ccccc1[C@H]2c1cccnc1` (single isomer, unassigned) [Compound 26A, (18*R,*Z)-12-hydroxy-18-(pyridin-3-yl)-6,9-dihydro-18H-10,17-methanobenzo[b]pyrido[1,2-f][1]oxa[5,6,9]triazacyclotridecine-11,13-dione]: the negative logarithm of the EC50 (pEC50) in series [1] was 6.40. Also, the CC50 in “in vitro” is more than 2000 nM.

Turning to `O=C1c2c(O)c(=O)ccn2N2CN1C/C=C\COc1ccccc1[C@@H]2c1cccnc1` (single isomer, unassigned) [Compound 26B, (18*S,*Z)-12-hydroxy-18-(pyridin-3-yl)-6,9-dihydro-18H-10,17-methanobenzo[b]pyrido[1,2-f][1]oxa[5,6,9]triazacyclotridecine-11,13-dione], the pEC50 in series [1] is 4.40. Also, the half-maximal cytotoxic concentration (CC50) in the series “in vitro” is more than 4000 nM.

As for `O=C1c2c(O)c(=O)ccn2N2CN1C/C=C\COc1cccnc1[C@H]2c1ccccc1` (single isomer, unassigned) [Compound 27A, (18*R,*Z)-12-hydroxy-18-phenyl-6,9-dihydro-18H-10,17-methanodipyrido[3,2-b:1′,2′-f][1]oxa[5,6,9]triazacyclotridecine-11,13-dione], the pEC50 in series [1] is 7.03. The compound also yielded a CC50 in the series “in vitro” of more than 2000 nM.

Consider `O=C1c2c(O)c(=O)ccn2N2CN1C/C=C\COc1cccnc1[C@@H]2c1ccccc1` (single isomer, unassigned) [Compound 27B, (18*S,*Z)-12-hydroxy-18-phenyl-6,9-dihydro-18H-10,17-methanodipyrido[3,2-b:1′,2′-f][1]oxa[5,6,9]triazacyclotridecine-11,13-dione], for which the negative-log EC50 (pEC50) in series [1] was 4.34. In “in vitro”, this compound showed a CC50 of more than 20000 nM.

On to `O=C1c2c(O)c(=O)ccn2N2CN1CC/C=C\COc1cccc3c1[C@H]2c1ccccc1CC3` (single isomer, unassigned) [Compound 28A], for which, in series [1], the negative-log EC50 (pEC50) was 5.23. In addition, the CC50 in “in vitro” was more than 20000 nM.

As to `O=C1c2c(O)c(=O)ccn2N2CN1CC/C=C\COc1cccc3c1[C@@H]2c1ccccc1CC3` (single isomer, unassigned) [Compound 28B], the pEC50 in series [1] was 8.22. In “in vitro”, this compound gave a CC50 of more than 400 nM.

In the case of `C[C@@H]1/C=C/COc2ccccc2[C@@H](c2ccccc2)N2CN1C(=O)c1c(O)c(=O)ccn12` (single isomer, unassigned) [Compound 29AA, (9*R, 18*R, E)-12-hydroxy-9-methyl-18-phenyl-6,9-dihydro-18H-10,17-methanobenzo[b]pyrido[1,2-f][1]oxa[5,6,9]triazacyclotridecine-11,13-dione], the pEC50 in series [1] was less than 5.52. The compound also displayed a CC50 in the series “in vitro” of more than 2000 nM.

`C[C@H]1/C=C/COc2ccccc2[C@@H](c2ccccc2)N2CN1C(=O)c1c(O)c(=O)ccn12` (single isomer, unassigned) [Compound 29AB, (9*S, 18*R, E)-12-hydroxy-9-methyl-18-phenyl-6,9-dihydro-18H-10,17-methanobenzo[b]pyrido[1,2-f][1]oxa[5,6,9]triazacyclotridecine-11,13-dione]: the negative-log EC50 (pEC50) in series [1] is 8.24. Further, the CC50 in “in vitro” was more than 200 nM.

For the compound `C[C@@H]1/C=C/COc2ccccc2[C@H](c2ccccc2)N2CN1C(=O)c1c(O)c(=O)ccn12` (single isomer, unassigned) [Compound 29BA, (9*R, 18*S, E)-12-hydroxy-9-methyl-18-phenyl-6,9-dihydro-18H-10,17-methanobenzo[b]pyrido[1,2-f][1]oxa[5,6,9]triazacyclotridecine-11,13-dione], the negative-log EC50 (pEC50) in series [1] was 5.77. This compound also returned a CC50 in “in vitro” of 83100 nM.

Turning to `C[C@H]1/C=C/COc2ccccc2[C@H](c2ccccc2)N2CN1C(=O)c1c(O)c(=O)ccn12` (single isomer, unassigned) [Compound 29BB, (9*S, 18*S, E)-12-hydroxy-9-methyl-18-phenyl-6,9-dihydro-18H-10,17-methanobenzo[b]pyrido[1,2-f][1]oxa[5,6,9]triazacyclotridecine-11,13-dione], the pEC50 in series [1] is 8.10. For the same compound, the CC50 in the series “in vitro” is more than 2000 nM.

For the compound `O=C1c2c(O)c(=O)ccn2N2CN1CCCCOc1ccc(F)cc1[C@H]2c1ccccc1` (single isomer, unassigned) [Compound 30A, (18*R)-2-fluoro-12-hydroxy-18-phenyl-6,7,8,9-tetrahydro-18H-10,17-methanobenzo[b]pyrido[1,2-f][1]oxa[5,6,9]triazacyclotridecine-11,13-dione], the pEC50 in series [1] was less than 6.00. For the same compound, the CC50 in “in vitro” is more than 2000 nM.

Consider `O=C1c2c(O)c(=O)ccn2N2CN1CCCCOc1ccc(F)cc1[C@@H]2c1ccccc1` (single isomer, unassigned) [Compound 30B, (18*S)-2-fluoro-12-hydroxy-18-phenyl-6,7,8,9-tetrahydro-18H-10,17-methanobenzo[b]pyrido[1,2-f][1]oxa[5,6,9]triazacyclotridecine-11,13-dione], for which, in series [1], the pEC50 was 7.82. In “in vitro”, this compound displayed a CC50 of more than 2000 nM.

Turning to `O=C1c2c(O)c(=O)ccn2N2CN1CCCCOc1ccc(F)cc1[C@H]2c1cccc(F)c1` (single isomer, unassigned) [Compound 32A, (18*R)-2-fluoro-18-(3-fluorophenyl)-12-hydroxy-6,7,8,9-tetrahydro-18H-10,17-methanobenzo[b]pyrido[1,2-f][1]oxa[5,6,9]triazacyclotridecine-11,13-dione], in series [1], the pEC50 was less than 6.00. Moreover, the CC50 in the series “in vitro” was more than 2000 nM.

On to `O=C1c2c(O)c(=O)ccn2N2CN1CCCCOc1ccc(F)cc1[C@@H]2c1cccc(F)c1` (single isomer, unassigned) [Compound 32B, (18*S)-2-fluoro-18-(3-fluorophenyl)-12-hydroxy-6,7,8,9-tetrahydro-18H-10,17-methanobenzo[b]pyrido[1,2-f][1]oxa[5,6,9]triazacyclotridecine-11,13-dione], for which the negative logarithm of the EC50 (pEC50) in series [1] is 7.60. In “in vitro”, the CC50 is more than 2000 nM.

With `O=C1c2c(O)c(=O)ccn2N2CN1C/C=C\COc1cccc3c1[C@H]2c1ccccc1CC3` (single isomer, unassigned) [Compound 33A, (19b*R,Z)-4-hydroxy-7,10,15,19b-tetrahydro-14H-13,12-(epiprop[1]en[1]yl[3]ylidene)-6,20-methanobenzo[3,4]cyclohepta[1,2-c]pyrido[1,2-f][1]oxa[5,6,9]triazacyclotridecine-3,5-dione], the pEC50 in series [1] is less than 6.00. In “in vitro”, this compound returned a CC50 of more than 2000 nM.

Regarding `O=C1c2c(O)c(=O)ccn2N2CN1C/C=C\COc1cccc3c1[C@@H]2c1ccccc1CC3` (single isomer, unassigned) [Compound 33B, (19b*S,Z)-4-hydroxy-7,10,15,19b-tetrahydro-14H-13,12-(epiprop[1]en[1]yl[3]ylidene)-6,20-methanobenzo[3,4]cyclohepta[1,2-c]pyrido[1,2-f][1]oxa[5,6,9]triazacyclotridecine-3,5-dione], the pEC50 in series [1] is 7.82. In addition, the CC50 in “in vitro” was more than 2000 nM.

On to `O=C1c2c(O)c(=O)ccn2N2CN1CCCCCc1ccncc1[C@H]2c1ccccc1` (single isomer, unassigned) [Compound 34A, (18*R)-12-hydroxy-18-phenyl-5,6,7,8,9,18-hexahydro-10,17-methanodipyrido[1,2-b:4′,3′-k][1,2,5]triazacyclotridecine-11,13-dione], for which the pEC50 in series [1] was 7.23. The compound also gave a CC50 in the series “in vitro” of more than 2000 nM.

As to `O=C1c2c(O)c(=O)ccn2N2CN1CCCCCc1ccncc1[C@@H]2c1ccccc1` (single isomer, unassigned) [Compound 34B, (18*S)-12-hydroxy-18-phenyl-5,6,7,8,9,18-hexahydro-10,17-methanodipyrido[1,2-b:4′,3′-k][1,2,5]triazacyclotridecine-11,13-dione], the pEC50 in series [1] is less than 6.00. This compound also came in with a CC50 in the series “in vitro” of more than 2000 nM.

On to `O=C1c2c(O)c(=O)ccn2N2CN1C/C=C\CCc1ccncc1[C@H]2c1ccccc1` (single isomer, unassigned) [Compound 35A, (18*R,*Z)-12-hydroxy-18-phenyl-5,6,9,18-tetrahydro-10,17-methanodipyrido[1,2-b:4′,3′-k][1,2,5]triazacyclotridecine-11,13-dione], for which the pEC50 in series [1] was 7.16. Further, the CC50 in “in vitro” was more than 2000 nM.

`O=C1c2c(O)c(=O)ccn2N2CN1C/C=C\CCc1ccncc1[C@@H]2c1ccccc1` (single isomer, unassigned) [Compound 35B, (18*S,*Z)-12-hydroxy-18-phenyl-5,6,9,18-tetrahydro-10,17-methanodipyrido[1,2-b:4′,3′-k][1,2,5]triazacyclotridecine-11,13-dione]: the pEC50 in series [1] is less than 6.00. Besides, in the series “in vitro”, the 50% cytotoxic concentration (CC50) is more than 2000 nM.

In the case of `O=C1c2c(O)c(=O)ccn2N2CN1C/C=C\COc1ccccc1[C@@H]2c1ccccc1F` (single isomer, unassigned) [Compound 36A, (18*R,Z)-18-(2-fluorophenyl)-12-hydroxy-6,9-dihydro-18H-10,17-methanobenzo[b]pyrido[1,2-f][1]oxa[5,6,9]triazacyclotridecine-11,13-dione], the pEC50 in series [1] was 7.82. In “in vitro”, this compound came in with a CC50 of more than 2000 nM.

As for `O=C1c2c(O)c(=O)ccn2N2CN1C/C=C\COc1ccccc1[C@H]2c1ccccc1F` (single isomer, unassigned) [Compound 36B, (18*S,Z)-18-(2-fluorophenyl)-12-hydroxy-6,9-dihydro-18H-10,17-methanobenzo[b]pyrido[1,2-f][1]oxa[5,6,9]triazacyclotridecine-11,13-dione], the pEC50 in series [1] was 6.09. The compound further yielded a CC50 in “in vitro” of more than 2000 nM.
